Tested on: hepatocytes
Assay: Seq-Well scRNA-Seq of hepatocytes after APAP overdose (signature scores, DEG vs untreated)
Assay type: in vivo, mouse
[1] = hepatocyte cluster A96 (APAP, 96 h) vs all other clusters
[2] = hepatocytes, cluster A24 (APAP) vs other treatment clusters
[3] = hepatocytes, cluster A48 (APAP) vs other treatment clusters

For `CC(=O)Nc1ccc(O)cc1` [APAP, acetaminophen], the “avg_logFC Fmo1” value [1] was 0.2535, the “avg_logFC Gclm” value [1] was 0.269 and the “avg_logFC Hamp2” value [1] was 0.2597. For the same molecule, the “avg_logFC Hsd17b7” value [1] was 0.3023, the “avg_logFC Lcat” value [1] was 0.2519 and the “avg_logFC Mocs2” value [1] was 0.2666. The “avg_logFC Mtdh” value [1] was 0.2838, the “avg_logFC Ndufa3” value [1] was 0.2765 and the “avg_logFC Ndufb2” value [1] was 0.3005. For the same molecule, the “avg_logFC Nfe2l2” value [1] was 0.2513, the “avg_logFC Oat” value [1] was 0.3213 and the “avg_logFC Pabpc1” value [1] was 0.2527. The “avg_logFC Pdk1” value [1] was 0.2558, the “avg_logFC Prkd3” value [1] was 0.2593 and the “avg_logFC Ptp4a2” value [1] was 0.2634. For the same molecule, the “avg_logFC Rgn” value [1] was 0.291, the “avg_logFC Sdhc” value [1] was 0.2722 and the “avg_logFC Sdhd” value [1] was 0.261. The “avg_logFC Slc4a4” value [1] was 0.2916, the “avg_logFC Slc25a10” value [1] was 0.2605 and the “avg_logFC Tgoln1” value [1] was 0.2968. The “avg_logFC Tmed5” value [1] was 0.2563, the “avg_logFC Tmem106b” value [1] was 0.2604 and the “avg_logFC Tob1” value [1] was 0.301. The “avg_logFC Tsc22d3” value [1] was 0.3181, the “avg_logFC Usmg5” value [1] was 0.2565 and the “avg_logFC Zfp91” value [1] was 0.3255. For the same molecule, the “AA474408 avg_logFC” value [2] was 0.4148, the “Abca1 avg_logFC” value [2] was 0.3831 and the “Acox1 avg_logFC” value [2] was 0.2743. For the same molecule, the “Acsl4 avg_logFC” value [2] was 0.299, the “Adh4 avg_logFC” value [2] was 0.392 and the “Ak3 avg_logFC” value [2] was 0.2504. For the same molecule, the “Aox3 avg_logFC” value [2] was 0.3489, the “Arcn1 avg_logFC” value [2] was 0.3044 and the “Atp8b1 avg_logFC” value [2] was 0.361. The “Atp11c avg_logFC” value [2] was 0.2568, the “Atxn1 avg_logFC” value [2] was 0.325 and the “Calm1 avg_logFC” value [2] was 0.3702. The “Calu avg_logFC” value [2] was 0.3005, the “Canx avg_logFC” value [2] was 0.2771 and the “Cltc avg_logFC” value [2] was 0.3397. For the same molecule, the “Cmah avg_logFC” value [2] was 0.4243, the “Copa avg_logFC” value [2] was 0.3334 and the “Cps1 avg_logFC” value [2] was 0.2775. For the same molecule, the “Ctnnb1 avg_logFC” value [2] was 0.329, the “Cyb5r3 avg_logFC” value [2] was 0.3097 and the “Ddost avg_logFC” value [2] was 0.2909. For the same molecule, the “Dhcr24 avg_logFC” value [2] was 0.2824, the “Dnajb11 avg_logFC” value [2] was 0.3288 and the “Dnajc12 avg_logFC” value [2] was 0.324. The “Echdc1 avg_logFC” value [2] was 0.2818, the “Edem1 avg_logFC” value [2] was 0.2675 and the “Efna1 avg_logFC” value [2] was 0.3161. The “Eif4g1 avg_logFC” value [2] was 0.2763, the “Eif4g2 avg_logFC” value [2] was 0.3515 and the “Eprs avg_logFC” value [2] was 0.2513. For the same molecule, the “Etnk1 avg_logFC” value [2] was 0.3194, the “Fam120a avg_logFC” value [2] was 0.2583 and the “Fasn avg_logFC” value [2] was 0.2699. The “Fndc3b avg_logFC” value [2] was 0.3202, the “Fos avg_logFC” value [2] was 0.3632 and the “Gjb2 avg_logFC” value [2] was 0.2998. The “Gm5424 avg_logFC” value [2] was 0.262, the “Gm24245 avg_logFC” value [2] was 0.414 and the “Grlf1 avg_logFC” value [2] was 0.2556. The “Hnf4a avg_logFC” value [2] was 0.2549, the “Hs3st3b1 avg_logFC” value [2] was 0.3219 and the “Hsd3b5 avg_logFC” value [2] was 0.3009. For the same molecule, the “Hspa13 avg_logFC” value [2] was 0.342, the “Ibtk avg_logFC” value [2] was 0.2959 and the “Il6st avg_logFC” value [2] was 0.3011. The “Il13ra1 avg_logFC” value [2] was 0.2889, the “Insig1 avg_logFC” value [2] was 0.4125 and the “Kmo avg_logFC” value [2] was 0.2687. The “Lasp1 avg_logFC” value [2] was 0.2608, the “Lgr4 avg_logFC” value [2] was 0.2572 and the “Lpgat1 avg_logFC” value [2] was 0.2525. The “Lrg1 avg_logFC” value [2] was 0.3096, the “Lrp1 avg_logFC” value [2] was 0.4837 and the “Lrrc59 avg_logFC” value [2] was 0.2688. The “Met avg_logFC” value [2] was 0.2512, the “Mlec avg_logFC” value [2] was 0.3405 and the “Mtss1 avg_logFC” value [2] was 0.2522. The “Mtus1 avg_logFC” value [2] was 0.3125, the “Mug2 avg_logFC” value [2] was 0.3166 and the “Nab1 avg_logFC” value [2] was 0.2601. For the same molecule, the “Nars avg_logFC” value [2] was 0.3127, the “Nedd4 avg_logFC” value [2] was 0.3305 and the “Nr1d2 avg_logFC” value [2] was 0.3855. For the same molecule, the “Nr5a2 avg_logFC” value [2] was 0.2599, the “Nrp1 avg_logFC” value [2] was 0.33 and the “Ostc avg_logFC” value [2] was 0.3082. The “Prg4 avg_logFC” value [2] was 0.4007, the “Prkd3 avg_logFC” value [2] was 0.3041 and the “Proz avg_logFC” value [2] was 0.28. For the same molecule, the “Pten avg_logFC” value [2] was 0.2663, the “Ptprf avg_logFC” value [2] was 0.2888 and the “Qsox1 avg_logFC” value [2] was 0.2817. The “Rab1 avg_logFC” value [2] was 0.3145, the “Rpn1 avg_logFC” value [2] was 0.3991 and the “Rrbp1 avg_logFC” value [2] was 0.2968. The “Sdf2l1 avg_logFC” value [2] was 0.3078, the “Sec31a avg_logFC” value [2] was 0.2596 and the “Sec61b avg_logFC” value [2] was 0.3008. For the same molecule, the “Sel1l avg_logFC” value [2] was 0.2833, the “Sh3bgrl avg_logFC” value [2] was 0.2668 and the “Slc3a1 avg_logFC” value [2] was 0.3074. The “Slc38a10 avg_logFC” value [2] was 0.2557, the “Spcs3 avg_logFC” value [2] was 0.3907 and the “Srebf1 avg_logFC” value [2] was 0.3149. For the same molecule, the “Srp72 avg_logFC” value [2] was 0.28, the “Srpr avg_logFC” value [2] was 0.2914 and the “Ssr1 avg_logFC” value [2] was 0.3129. For the same molecule, the “Stard4 avg_logFC” value [2] was 0.2922, the “Stt3b avg_logFC” value [2] was 0.2648 and the “Tmed7 avg_logFC” value [2] was 0.3715. For the same molecule, the “Tmem30a avg_logFC” value [2] was 0.3056, the “Trip12 avg_logFC” value [2] was 0.2832 and the “Txndc5 avg_logFC” value [2] was 0.2758. The “Uggt1 avg_logFC” value [2] was 0.2805, the “Uso1 avg_logFC” value [2] was 0.3202 and the “Usp4 avg_logFC” value [2] was 0.2959. For the same molecule, the “Usp9x avg_logFC” value [2] was 0.3387, the “Zbtb20 avg_logFC” value [2] was 0.3135 and the “Abcb4 avg_logFC” value [3] was 0.4425. The “Abcd2 avg_logFC” value [3] was 0.2813, the “Abhd14b avg_logFC” value [3] was 0.4059 and the “Acad11 avg_logFC” value [3] was 0.3851. The “Agt avg_logFC” value [3] was 0.5795, the “Ahcy avg_logFC” value [3] was 0.34 and the “Ahsg avg_logFC” value [3] was 0.3592. The “Aldh9a1 avg_logFC” value [3] was 0.3826, the “Aldob avg_logFC” value [3] was 0.4375 and the “Ambp avg_logFC” value [3] was 0.286. The “Amy1 avg_logFC” value [3] was 0.4216, the “Angptl3 avg_logFC” value [3] was 0.6111 and the “Apoa5 avg_logFC” value [3] was 0.4483. For the same molecule, the “Apoc2 avg_logFC” value [3] was 0.8639, the “Apoc3 avg_logFC” value [3] was 0.407 and the “Apoe avg_logFC” value [3] was 0.5049. The “Apoh avg_logFC” value [3] was 0.4628, the “Atp5b avg_logFC” value [3] was 0.3281 and the “Atp5h avg_logFC” value [3] was 0.5978. For the same molecule, the “Bfar avg_logFC” value [3] was 0.308, the “Bnip3 avg_logFC” value [3] was 0.462 and the “Cdo1 avg_logFC” value [3] was 0.3971. The “Cebpb avg_logFC” value [3] was 0.3684, the “Ces1b avg_logFC” value [3] was 0.483 and the “Ces1c avg_logFC” value [3] was 0.5488. The “Chchd10 avg_logFC” value [3] was 0.7517, the “Cox5a avg_logFC” value [3] was 0.4197 and the “Cox8a avg_logFC” value [3] was 0.552. The “Cp avg_logFC” value [3] was 0.4274, the “Cyp4a10 avg_logFC” value [3] was 0.9326 and the “Cyp4a14 avg_logFC” value [3] was 1.281. The “Dbp avg_logFC” value [3] was 0.2896, the “Ddb1 avg_logFC” value [3] was 0.3544 and the “Decr1 avg_logFC” value [3] was 0.5669. For the same molecule, the “Decr2 avg_logFC” value [3] was 0.4129, the “Ech1 avg_logFC” value [3] was 0.418 and the “Echs1 avg_logFC” value [3] was 0.4649. For the same molecule, the “Ephx2 avg_logFC” value [3] was 0.3869, the “F2 avg_logFC” value [3] was 0.3952 and the “F10 avg_logFC” value [3] was 0.3927. For the same molecule, the “F12 avg_logFC” value [3] was 0.388, the “Fah avg_logFC” value [3] was 0.3913 and the “Fcgrt avg_logFC” value [3] was 0.4084. The “Fkbp5 avg_logFC” value [3] was 0.2572, the “Fth1 avg_logFC” value [3] was 0.375 and the “Gabarap avg_logFC” value [3] was 0.4014. The “Gc avg_logFC” value [3] was 0.2979, the “Gltscr2 avg_logFC” value [3] was 0.3432 and the “Gm6484 avg_logFC” value [3] was 0.4108. The “Gm23935 avg_logFC” value [3] was 0.4738, the “Grn avg_logFC” value [3] was 0.431 and the “Gstt3 avg_logFC” value [3] was 0.3384. For the same molecule, the “Gys2 avg_logFC” value [3] was 0.4231, the “Hdac11 avg_logFC” value [3] was 0.3557 and the “Herpud1 avg_logFC” value [3] was 0.6044. For the same molecule, the “Hmgcl avg_logFC” value [3] was 0.5501, the “Hmgcs2 avg_logFC” value [3] was 0.7687 and the “Hpx avg_logFC” value [3] was 0.3851. The “Hrg avg_logFC” value [3] was 0.5316, the “Hsd17b13 avg_logFC” value [3] was 0.6221 and the “Hspa8 avg_logFC” value [3] was 0.4107. The “Khk avg_logFC” value [3] was 0.5202, the “Lcat avg_logFC” value [3] was 0.5054 and the “Lims2 avg_logFC” value [3] was 0.3761. For the same molecule, the “Lpin1 avg_logFC” value [3] was 0.515, the “Mat1a avg_logFC” value [3] was 0.7753 and the “Mfsd2a avg_logFC” value [3] was 0.6614. The “Mlycd avg_logFC” value [3] was 0.4378, the “Ndrg2 avg_logFC” value [3] was 0.3482 and the “Nr1i3 avg_logFC” value [3] was 0.4759. For the same molecule, the “Oaf avg_logFC” value [3] was 0.5021, the “P4hb avg_logFC” value [3] was 0.2981 and the “Pabpc1 avg_logFC” value [3] was 0.4782. The “Plin5 avg_logFC” value [3] was 0.3985, the “Pnpla2 avg_logFC” value [3] was 0.3465 and the “Prodh2 avg_logFC” value [3] was 0.5055. For the same molecule, the “Rbp4 avg_logFC” value [3] was 0.3942.

From patent publication US20230053540A1, “TREATMENT OF LIVER INJURY” (Massachusetts Institute of Technology, priority 2019, published 2023)
